How the values were obtained:
HT-29 (colon) = assay: Tumor cell growth (sulforhodamine B) after chemoprotectant regimen and paclitaxel; type: cell-based, human; conditions: forskolin (100 µM) plus PDE4 inhibitor (1 µM), then paclitaxel (100 nM) 24 hours; versus DMSO pretreatment
Procedure: (§1) The human tumor cell lines HT-29 (colon: ATCC# HTB 38), RKO (colon, ATCC# HTB 130), lines A549 (lung, ATCC# CCL 185), and MDA468 (breast, ATCC# HTB 132) were obtained from the American Type Culture Collection and maintained in DMEM containing 10% FBS. Tumor cells were grown at 37°C in a humidified atmosphere of 5% CO2. Adherent tumor cells were seeded into 96 well plates and incubated for six hours to allow for attachment. After six hours the chemoprotectants forskolin (100 µM) plus rolipram (1 µM) or forskolin (100 µM) plus Ariflo™ (1µM) were added. After overnight incubation, paclitaxel (100 nM) was added for 24 hours. Cells were then washed free of chemoprotectants and paclitaxel, placed in fresh media, and grown for 5 days. Growth was measured daily using sulforhodamine B (Skehan P. et. al., (1990), J. Nat'l Cancer Inst 82:1107-12). The results are depicted in Figure 8.

A549 (lung) = assay: as above; type: cell-based, human; conditions: forskolin (100 µM) plus PDE4 inhibitor (1 µM), then paclitaxel (100 nM); cell line not completely inhibited by paclitaxel
Procedure: as §1

RKO (colon) = assay: as above; type: cell-based, human; conditions: forskolin (100 µM) plus PDE4 inhibitor (1 µM), then paclitaxel (100 nM) 24 hours; versus DMSO pretreatment
Procedure: as §1

[1] = Cell based assays utilized herein, PDE4 inhibitor used alone; conditions: without forskolin
[2] = test system: expanded CD34^+ stem cells; assay: Flow cytometric (FACS) evaluation of percent live cells after chemoprotectant pretreatment and paclitaxel; type: cell-based, Human; conditions: pretreatment rolipram (1µM) plus Forskolin (100 µM) 24 hours
Procedure: Prevention of myelosuppression was shown by protection of neutrophil progenitors by PDE4 inhibitors from the cytotoxic effects of cancer chemotherapeutic agents. In Examples 2-7 a variety of chemically distinct PDE4 inhibitors were tested for their ability to protect neutrophil progenitors. Three methods, more completely described in the following examples, were utilized for a determination of cell survival and ability to produce daughter cells of primary human neutrophil progenitors: (1) a FACS assay which determined the percent of live cells by size and granularity; (2) a colony forming assay which measured the number of CFU-GM progenitors (a specific early stage neutrophil progenitor); and (3) a cell-based EUSA which measured CD15 antigen the value of which was proportional to the number of neutrophil lineage cells. This assay allows evaluation of neutrophil progenitors (cells that can divide and produce daughter neutrophil-lineage cells) at multiple stages of differentiation.
Human bone marrow samples were collected from presumed healthy human donors following informed consent through an agreement with Duke University Medical Center, Durham, North Carolina. Mononuclear cells were isolated using a 1.077 Ficoll-Paque gradient according to the published procedure (Dornsife, RE et al., Antimicrob Agents Chemother, 35: 322-328, (1991)) and were suspended in HBSS with 2% FBS at a concentration of 5 X 10^7 cells/ml. CD34^+ stem cells were isolated by "StemSep™ CD34^+ stem cell selection kit" by following the instructions from the manufacturer (Stem Cell Technologies). Cells were adjusted to 1 x 10^6 cells/ml in complete growth media and maintained in a humidified, 5% CO2 incubator. The complete growth media was IMDM supplemented with 20% FBS, 1% penicillin-streptomycin antibiotics, the recombinant human cytokines (Biosource)Flt-3/Flk-2 ligand (50 ng/ml), stem cell factor (50 ng/ml), interleukin-3 (40ng/ml), and G-CSF (10 ng/ml). The cells were maintained at a density of between 0.5 and 3 x 10^5 cells/ml. The CD34+ stem cells were expanded in culture over an average range of 11 to 23 days. Five groups of expanded CD34+ cells were treated with rolipram (1µM), plus Forskolin (100 µM), an adenylate cyclase activator, for 24 hours and five groups of expanded CD34+ cells were treated with DMSO for 24 hours. After 24 hours, to the 5 sets of cells that were treated with DMSO and 5 groups of cells treated with rolipram plus forskolin, paclitaxel was added to give final concentrations of 0, 30, 100, 300, and 600 nM of paclitaxel respectively and incubated for an additional 24 hours. After the 48 hours of treatment, the cells were counted, washed and re-suspended in PBS with 2% FBS. […] The prepared cells were analyzed on a BD FACSort flow cytometer. […]

SMILES | effect of chemoprotectant regimen on inhibition of tumour cell growth by paclitaxel (HT-29 (colon)) | effect of chemoprotectant regimen on inhibition of tumour cell growth by paclitaxel (A549 (lung)) | effect of chemoprotectant regimen on inhibition of tumour cell growth by paclitaxel (RKO (colon)) | protective effect when used alone [1] | surviving cell fractions ([2]; then paclitaxel 30nM 24 hours, DMSO pretreatment gave 45%) [%] | surviving cell fractions ([2]; then paclitaxel 100nM 24 hours, DMSO pretreatment gave 27%) [%] | surviving cell fractions ([2]; then paclitaxel 300nM 24 hours, DMSO pretreatment gave 23%) [%] | surviving cell fractions ([2]; then paclitaxel 600nM 24 hours, DMSO pretreatment gave 18%) [%]
COc1ccc([C@]2(C#N)CC[C@@H](C(=O)O)CC2)cc1OC1CCCC1 [Ariflo™, cis-4-cyano-4-[3-(cyclopentyloxy)-4-methoxyphenyl]cyclohexane-1-carboxylic acid] | no effect on the inhibition of tumour cell growth | no additional protection | no effect on the inhibition of tumour cell growth |  |  |  |  | 
COc1ccc(C2CNC(=O)C2)cc1OC1CCCC1 (centres unmarked) [Rolipram, rolipram] | no effect on the inhibition of tumour cell growth | no additional protection | no effect on the inhibition of tumour cell growth | little protective effect | 86 | 81 | 63 | 59

Reference: patent publication EP1289557B1, “CANCER TREATMENT COMPOSITION CONTAINING AN ANTI-NEOPLASTIC AGENT AND A PDE4 INHIBITOR” (GLAXO GROUP LIMITED, priority 2000, dated 2001)
